Tested on: primary mouse cortical cultures
Test: Confocal imaging of calcium transients and mitochondrial membrane potential
Assay type: cell-based
Method: Embryonic day 16 timed pregnant CD1 out-bred mice were obtained from Charles River Laboratories (Charles River; QC, Canada). Primary cortical neuron cultures were prepared from cerebral cortices of wild type (WT) CD1 mouse embryos as described previously, with the following modifications. Pregnant CD1 females were heavily anaesthetized with isoflurane vapor (Benson Medical Industries, Inc., Markham, ON) before being euthanized by decapitation. The embryonic day 16 (E16) fetuses were immediately removed from the sacrificed pregnant females by cesarean section and placed in ice-cold Hank's Balanced Salt Solution (HBSS) (GIBCO; Invitrogen, Amarillo, Calif.). The meninges were removed from the brains and cortices were isolated under a dissecting microscope. The cortices from each embryo were placed in individual wells of a 24-well plate (Corning; Lowell, Mass.), containing 1 ml of ice-cold PBS (GIBCO; […] Under sterile conditions, the tissue was briefly minced, transferred to 15 ml sterile conical tubes (Corning; Lowell, Mass.) and centrifuged at 350×g for 3 min at room temperature. The dissecting solution was discarded and the cortical neurons were then dissociated trituration with fire-polished glass pipettes followed by incubating in 1 ml of 0.1% trypsin solution (0.1% w/v trypsin (Invitrogen, Amarillo, Calif.) in PBS with 1 mM Mg^2+ and 13 mM glucose) at 37° C. for 15 min. The trypsinization was inhibited by the addition of 0.5 ml of trypsin inhibitor solution that also contained DNase I (0.06% w/v trypsin inhibitor (Invitrogen; Amarillo, Calif.) and 0.01% DNase I (Invitrogen; […] The tubes were mixed briefly and the cells were centrifuged at 350×g for 3 min at room temperature. The trypsin and inhibitor solutions were discarded and each cell pellet was suspended in 1 ml of cortical neuron plating medium (Neurobasal medium (Invitrogen, Amarillo, Calif.) with 10% fetal bovine serum (GIBCO; Invitrogen; Amarillo, Calif.), 2% B27 supplement, 1 mM L-glutamine, and 1% Gentamycin (Invitrogen; […] Cortical neurons were plated in 96-well plates (Corning; Lowell, Mass.) that were pre-coated with poly-D-lysine (PDL; Sigma-Aldrich; Oakville, ON) according to the procedure described by the manufacturer. Briefly, plates were coated immediately before use with 100 μg/ml PDL for 5-10 min (50 μl/well), washed three times with tissue-culture grade water and left to dry for 2 h before cells were introduced. Cortical neurons were plated at a concentration of 1×10^6 cells/ml (100 µl/well) and medium was completely changed the day after plating to serum-free cortical neuron medium (Neurobasal medium with 2% B27 supplement, 5 mM HEPES, 0.5 mM L-glutamine, and 20 μg/ml Gentamycin), which was replaced every 3 days in culture. Cultures were maintained in a humidified, 37° C. incubator with 5% CO2. Experiments were performed on the eighth day in vitro (DIV10). For measurements of mitochondrial membrane potential (ΔΨm), cells were loaded with 25 nM tetrannethylrhodamine methyl ester (TMRM) for 30 min at room temperature and the dye was present during the experiment. TMRM is used in the redistribution mode to assess ΔΨm with a reduction in TMRM fluorescence indicating mitochondrial depolarization. Neurons were loaded for 30 min at room temperature with X-rhod-1 AM (0.5 μM) and Fluo-3 AM (0.5 μM) (Molecular Probes, Invitrogen) prior to imaging in HEPES-buffered salt solution (HBSS) composed of (mM): 156 NaCl, 3 KCl, 2 MgSO4, 1.25 KH2PO4, 2 CaCl2, 10 glucose and 10 HEPES, pH adjusted to 7.35 with NaOH. Confocal images were obtained using a 510 CLSM (Zeiss, Thornwood, N.Y.) equipped with a META detection system and a […] oil-immersion objective. The 488 nm Argon laser line was used to excite fluo-3 fluorescence, which was measured using a bandpass filter from 505 to 550 nm. Illumination intensity was kept to a minimum (at 0.1-0.2% of laser output) to avoid phototoxicity and the pinhole was set to give an optical slice of 2 μm. […]

For `C/C=C(/C)C(=O)O[C@H]1C(C)=C2[C@H]([C@@H]1OC(=O)CCCCCCC)[C@@](C)(OC(C)=O)C[C@H](OC(=O)CCC)[C@@]1(O)[C@H]2OC(=O)[C@@]1(C)O` [thapsigargin], the “[Ca2+]c oscillations stimulated by Q” value (5 μM, depletion of ER Ca2+ stores) was “blocked”.
In the case of `N#CC(C#N)=NNc1ccc(OC(F)(F)F)cc1` [FCCP, carbonyl cyanide-4-(trifluoromethoxy)phenylhydrazone], the TMRM fluorescence (added after Q and thapsigargin) is reported as “complete loss” and the “[Ca2+]c” value (added after Q and thapsigargin) is reported as “sharp increase”.
